Test results as given in Sander's compilation of Henry's law constants (doi:10.1021/je00012a017).

Assay: Henry solubility constant Hcp at 301 K (mol/(m3 Pa))
Conditions: reference: Hansen et al. (1993)

Row | Henry solubility constant Hcp at 301 K | SMILES
1 | 6e-05 | C1CCCCC1 [cyclohexane]

Assay: Henry solubility constant Hcp at 302 K (mol/(m3 Pa))
Conditions: reference: Hansen et al. (1993)

Row | SMILES | Henry solubility constant Hcp at 302 K
2 | Cc1ccccc1 [methylbenzene] | 0.0014
3 | c1ccccc1 [benzene] | 0.0015

Assay: Henry solubility constant Hcp at 298.15 K (mol/(m3 Pa))
Conditions: reference: Hansen et al. (1993)

Row | SMILES | Henry solubility constant Hcp
4 | Brc1ccccc1 [bromobenzene] | 0.0053
5 | CC(C)c1ccccc1 [(2-propyl)-benzene] | 0.00087
6 | Cc1ccc(C)cc1 [1,4-dimethylbenzene] | 0.0012
7 | CCCCC(C)C [2-methylhexane] | 1.9e-05
8 | ClCC(Cl)Cl [1,1,2-trichloroethane] | 0.012
9 | ClC(Cl)(Cl)Cl [tetrachloromethane] | 0.00033
10 | Cc1ccc(C)c(C)c1 [1,2,4-trimethylbenzene] | 0.0015
11 | CC(Cl)(Cl)Cl [1,1,1-trichloroethane] | 0.00059
12 | Cc1ccc2ccccc2c1 [2-methylnaphthalene] | 5e-05

Continued, values first:

Row | Henry solubility constant Hcp | SMILES
13 | 6.5e-05 | C1CCCC1 [cyclopentane]
14 | 1.2e-05 | CCCCCCC [heptane]
15 | 9.6e-05 | CC1CCCCC1 [methylcyclohexane]
16 | 3e-05 | CCCCCCCC [octane]
